Values quoted from earlier work as cited in patent US4632934A, “Imidazole derivatives and pharmaceutical use thereof” (Kissei Pharmaceutical Co., Ltd., priority 1978, dated 1986).

Test system: thromboxane synthetase
Conditions: prior art literature

SMILES	inhibitory effect on thromboxane synthetase (in words)
c1ccc(Cn2ccnc2)cc1 [1-benzylimidazole]	strong inhibitory effect
c1c[nH]cn1 [imidazole]	very weak inhibitory effect

Other lines, results leading:

inhibitory effect on thromboxane synthetase (in words)	SMILES
strong inhibitory effect	CC(C)c1ccccc1-n1ccnc1 [1-(2-isopropylphenyl)imidazole]
strong inhibitory effect	CCCCCCCCCCn1ccnc1 [1-decylimidazole]
strong inhibitory effect	CCCCCCCCCn1ccnc1 [1-nonylimidazole]
